Where “and” joins values, the source holds several entries; their conditions need not be identical. Equal entries are not always repeated.
Test: Stability of ciprofol QC samples in rat plasma
Assay type: physicochemical
Details: rat plasma; for ciprofol found after storage, Autosampler / ciprofol found after storage, Room Temperature / ciprofol found after storage, Freeze–Thaw / ciprofol found after storage, Long-Term Storage: n = 5; for Stability: calculated concentration: single replicates
Experimental: 5 μL of IS solution (2.5 μg·mL^-1 D6-ciprofol) was added to 100 μL of plasma and mixed. Then, 300 μL of acetonitrile was added. The mixture was vortexed for 2 min and centrifuged for 10 min, and the supernatant was transferred to an autosampler vial for HPLC-MS/MS detection.
To investigate the stability of ciprofol under a variety of conditions, three groups of liver microsome QC sample solutions were prepared, and one group was immediately processed and analysed as described in Section 2.4.2. Another group was stored at room temperature for 8 hours before treatment and assessment. The other group was treated and placed in the autosampler (4°C) for 24 h and subsequently analysed. In addition, simulated plasma QC samples were prepared in five groups: one group was processed and measured immediately as described in Section 2.4.3, and another group was placed in the autosampler for 24 h after treatment. The other three groups were placed at room temperature for 8 h, stored at -40°C for 30 d, frozen and thawed three times, respectively, and then processed and detected as described in Section 2.4.3. All the above samples were tested in parallel in five batches.

[1] = Autosampler for 24 h, QC level H
[2] = Autosampler for 24 h, QC level L
[3] = Autosampler for 24 h, QC level M
[4] = Feeeze - Thaw for three times, QC level H
[5] = Feeeze - Thaw for three times, QC level L
[6] = Feeeze - Thaw for three times, QC level M
[7] = Room - Temperature for 8 h, QC level H
[8] = Room - Temperature for 8 h, QC level L
[9] = Room - Temperature for 8 h, QC level M

Q: Which “ciprofol found after storage, Autosampler” value (QC 250 ng·mL^-1, autosampler for 24 h after treatment) does the source give for `CC(C)c1cccc([C@H](C)C2CC2)c1O` [ciprofol] here?
A: 250.78 ± 12.31 ng/mL

Q: What about the “ciprofol found after storage, Room Temperature” value (QC 250 ng·mL^-1, room temperature for 8 h) of the same compound?
A: 227.31 ± 5.60 ng/mL

Q: And the “ciprofol found after storage, Freeze–Thaw” value (QC 250 ng·mL^-1, three freeze–thaw cycles)?
A: 245.21 ± 3.43 ng/mL

Q: And the “ciprofol found after storage, Long-Term Storage” value (QC 250 ng·mL^-1, −40°C for 30 days)?
A: 242.73 ± 9.08 ng/mL

Q: What about the “ciprofol found after storage, Autosampler” value (QC 1600 ng·mL^-1, autosampler for 24 h after treatment) of the same compound?
A: 1576.27 ± 41.67 ng/mL

Q: What about the “ciprofol found after storage, Room Temperature” value (QC 1600 ng·mL^-1, room temperature for 8 h) of the same compound?
A: 1464.24 ± 98.79 ng/mL

Q: And the “ciprofol found after storage, Freeze–Thaw” value (QC 1600 ng·mL^-1, three freeze–thaw cycles)?
A: 1604.92 ± 96.88 ng/mL

Q: And the “ciprofol found after storage, Long-Term Storage” value (QC 1600 ng·mL^-1, −40°C for 30 days)?
A: 1597.51 ± 83.93 ng/mL

Q: And the “Stability: mean calculated concentration” value (-40℃ for 30 d, QC level L)?
A: 31.38 ng/mL

Q: What about the “Stability: calculated concentration” value (-40℃ for 30 d, QC level L) of the same compound?
A: 34.12 ng/mL and 32.66 ng/mL and 29.27 ng/mL and 33.13 ng/mL and 27.74 ng/mL

Q: And the “Stability: mean calculated concentration” value (-40℃ for 30 d, QC level M)?
A: 242.73 ng/mL

Q: And the “Stability: calculated concentration” value (-40℃ for 30 d, QC level M)?
A: 234.27 ng/mL and 256.93 ng/mL and 236.05 ng/mL and 240.78 ng/mL

Q: And the “Stability: mean calculated concentration” value [1]?
A: 1576.27 ng/mL

Q: What about the “Stability: calculated concentration” value [1] of the same compound?
A: 1522.23 ng/mL and 1628.44 ng/mL and 1549.96 ng/mL and 1580.01 ng/mL and 1600.71 ng/mL

Q: What about the “Stability: mean calculated concentration” value [2] of the same compound?
A: 31.48 ng/mL

Q: What about the “Stability: calculated concentration” value [2] of the same compound?
A: 32.65 ng/mL and 31.94 ng/mL and 29.92 ng/mL and 33.65 ng/mL and 29.23 ng/mL

Q: And the “Stability: mean calculated concentration” value [3]?
A: 250.78 ng/mL

Q: What about the “Stability: calculated concentration” value [3] of the same compound?
A: 249.99 ng/mL and 245.49 ng/mL and 259.61 ng/mL and 233.66 ng/mL and 265.15 ng/mL

Q: What about the “Stability: mean calculated concentration” value [4] of the same compound?
A: 1604.92 ng/mL

Q: What about the “Stability: calculated concentration” value [4] of the same compound?
A: 1500.04 ng/mL and 1659.28 ng/mL and 1498.65 ng/mL and 1682.66 ng/mL and 1683.96 ng/mL

Q: And the “Stability: mean calculated concentration” value [5]?
A: 32.14 ng/mL

Q: What about the “Stability: calculated concentration” value [5] of the same compound?
A: 33.17 ng/mL and 29.49 ng/mL and 30.69 ng/mL and 33.26 ng/mL and 34.09 ng/mL

Q: What about the “Stability: mean calculated concentration” value [6] of the same compound?
A: 245.21 ng/mL

Q: What about the “Stability: calculated concentration” value [6] of the same compound?
A: 248.65 ng/mL and 241.72 ng/mL and 249.13 ng/mL and 243.02 ng/mL and 243.50 ng/mL

Q: And the “Stability: mean calculated concentration” value [7]?
A: 1464.24 ng/mL

Q: And the “Stability: calculated concentration” value [7]?
A: 1500.17 ng/mL and 1462.05 ng/mL and 1317.85 ng/mL and 1591.16 ng/mL and 1449.95 ng/mL

Q: And the “Stability: mean calculated concentration” value [8]?
A: 29.27 ng/mL

Q: What about the “Stability: calculated concentration” value [8] of the same compound?
A: 29.52 ng/mL and 32.22 ng/mL and 27.05 ng/mL and 30.35 ng/mL and 27.24 ng/mL

Q: And the “Stability: mean calculated concentration” value [9]?
A: 227.31 ng/mL

Q: What about the “Stability: calculated concentration” value [9] of the same compound?
A: 220.38 ng/mL and 226.72 ng/mL and 228.84 ng/mL and 235.64 ng/mL and 224.99 ng/mL
